Here are results for twelve compounds from ChEMBL document CHEMBL1649420, “Identifying chelators for metalloprotein inhibitors using a fragment-based approach” (J Med Chem, 2011).

For assay [1], the target named is T1, Interstitial collagenase (Homo sapiens) (UniProt P03956).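 Also: recombinant human enzyme, with inhibition measured after 30 min.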
T1 sequence (whole entry): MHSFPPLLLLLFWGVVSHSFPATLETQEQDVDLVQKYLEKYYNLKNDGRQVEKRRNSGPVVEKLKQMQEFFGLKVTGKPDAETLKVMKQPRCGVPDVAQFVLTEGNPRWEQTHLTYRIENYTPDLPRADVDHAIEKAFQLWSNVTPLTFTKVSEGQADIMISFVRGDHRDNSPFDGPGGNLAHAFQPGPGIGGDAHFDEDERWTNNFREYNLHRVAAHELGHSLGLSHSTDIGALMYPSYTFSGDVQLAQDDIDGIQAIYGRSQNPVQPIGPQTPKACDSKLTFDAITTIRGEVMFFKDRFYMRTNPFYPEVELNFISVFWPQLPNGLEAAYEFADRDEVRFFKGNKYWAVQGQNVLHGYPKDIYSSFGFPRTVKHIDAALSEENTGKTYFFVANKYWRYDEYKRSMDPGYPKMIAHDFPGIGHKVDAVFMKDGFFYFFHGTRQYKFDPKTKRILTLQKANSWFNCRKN
To be noted: at 1 mM.

Assay [2] addresses Matrix metalloproteinase-9 (Homo sapiens) (UniProt P14780). To be noted: at 1 mM.
Assay [3] addresses Stromelysin-1 (Homo sapiens) (UniProt P08254). To be noted: at 1 mM.
For assay [4], the target named is T2, Nitric oxide synthase, inducible (Mus musculus) (UniProt P29477).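 Also: recombinant enzyme, activity read out colorimetrically after 40 min.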
T2 sequence (whole entry): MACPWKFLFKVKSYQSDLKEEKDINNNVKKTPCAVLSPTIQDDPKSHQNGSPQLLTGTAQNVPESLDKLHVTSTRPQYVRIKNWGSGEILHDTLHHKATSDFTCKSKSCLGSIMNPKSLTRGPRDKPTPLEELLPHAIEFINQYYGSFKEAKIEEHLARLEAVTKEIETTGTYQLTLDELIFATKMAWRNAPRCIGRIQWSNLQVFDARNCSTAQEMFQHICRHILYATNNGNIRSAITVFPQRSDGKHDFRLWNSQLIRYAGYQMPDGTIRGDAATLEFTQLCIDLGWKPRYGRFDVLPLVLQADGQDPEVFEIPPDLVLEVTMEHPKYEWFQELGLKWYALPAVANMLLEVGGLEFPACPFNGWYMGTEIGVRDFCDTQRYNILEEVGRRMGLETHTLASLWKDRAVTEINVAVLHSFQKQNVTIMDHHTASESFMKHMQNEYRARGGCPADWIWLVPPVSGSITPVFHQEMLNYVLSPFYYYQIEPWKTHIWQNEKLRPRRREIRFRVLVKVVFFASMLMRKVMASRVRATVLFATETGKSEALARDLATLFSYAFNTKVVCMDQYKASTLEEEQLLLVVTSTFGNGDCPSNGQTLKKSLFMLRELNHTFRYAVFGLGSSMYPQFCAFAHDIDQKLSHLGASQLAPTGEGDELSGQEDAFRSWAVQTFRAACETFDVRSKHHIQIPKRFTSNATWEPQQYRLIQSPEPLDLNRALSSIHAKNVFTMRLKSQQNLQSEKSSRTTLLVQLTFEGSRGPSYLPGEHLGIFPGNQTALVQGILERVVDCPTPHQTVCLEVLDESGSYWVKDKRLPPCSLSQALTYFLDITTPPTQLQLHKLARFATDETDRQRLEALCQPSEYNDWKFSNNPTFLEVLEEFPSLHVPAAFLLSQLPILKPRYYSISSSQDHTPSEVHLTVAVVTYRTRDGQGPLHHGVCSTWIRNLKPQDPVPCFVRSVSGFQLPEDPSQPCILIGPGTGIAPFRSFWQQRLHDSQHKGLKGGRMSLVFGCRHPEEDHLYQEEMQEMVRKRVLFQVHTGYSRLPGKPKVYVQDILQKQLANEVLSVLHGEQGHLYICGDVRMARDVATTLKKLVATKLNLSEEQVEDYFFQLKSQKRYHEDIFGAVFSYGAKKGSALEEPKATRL
To be noted: at 1 mM.

Assay [5] concerns the target Neutrophil collagenase (Homo sapiens) (UniProt P22894). Conditions: at 1 mM.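 Also: recombinant human MMP8 enzyme, percent inhibition read after 30 min.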
Assay [6] concerns the target 72 kDa type IV collagenase (Homo sapiens, UniProt P08253). To be noted: at 1 mM.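 Also: recombinant human enzyme, inhibition read after a 30 min incubation.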
The target in assay [7] is T3, Polyunsaturated fatty acid 5-lipoxygenase (Homo sapiens) (UniProt P09917).
T3 sequence (whole entry): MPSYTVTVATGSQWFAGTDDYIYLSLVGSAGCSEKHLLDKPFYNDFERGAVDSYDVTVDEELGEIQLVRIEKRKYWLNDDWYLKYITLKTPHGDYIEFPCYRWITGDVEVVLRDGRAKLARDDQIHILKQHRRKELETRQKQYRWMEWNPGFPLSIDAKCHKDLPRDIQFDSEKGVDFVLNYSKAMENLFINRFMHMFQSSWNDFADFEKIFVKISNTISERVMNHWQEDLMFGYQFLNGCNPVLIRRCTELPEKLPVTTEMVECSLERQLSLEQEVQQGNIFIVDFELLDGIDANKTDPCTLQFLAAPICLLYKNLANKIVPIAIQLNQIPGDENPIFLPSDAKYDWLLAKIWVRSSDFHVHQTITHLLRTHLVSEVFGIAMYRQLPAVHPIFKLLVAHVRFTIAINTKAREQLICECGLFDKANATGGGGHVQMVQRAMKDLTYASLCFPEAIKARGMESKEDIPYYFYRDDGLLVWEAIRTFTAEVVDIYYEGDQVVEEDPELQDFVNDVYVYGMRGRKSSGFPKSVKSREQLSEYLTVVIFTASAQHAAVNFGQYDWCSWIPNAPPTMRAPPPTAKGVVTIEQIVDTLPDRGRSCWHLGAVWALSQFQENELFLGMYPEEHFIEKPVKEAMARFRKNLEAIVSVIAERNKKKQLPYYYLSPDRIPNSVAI
Nature of the assay: Inhibition of human recombinant 5-lipoxygenase at 1 mM after 10 mins by fluorescence assay.

Assay [8] has as its target T4, Lethal factor (Bacillus anthracis) (UniProt P15917).
T4 sequence (whole entry): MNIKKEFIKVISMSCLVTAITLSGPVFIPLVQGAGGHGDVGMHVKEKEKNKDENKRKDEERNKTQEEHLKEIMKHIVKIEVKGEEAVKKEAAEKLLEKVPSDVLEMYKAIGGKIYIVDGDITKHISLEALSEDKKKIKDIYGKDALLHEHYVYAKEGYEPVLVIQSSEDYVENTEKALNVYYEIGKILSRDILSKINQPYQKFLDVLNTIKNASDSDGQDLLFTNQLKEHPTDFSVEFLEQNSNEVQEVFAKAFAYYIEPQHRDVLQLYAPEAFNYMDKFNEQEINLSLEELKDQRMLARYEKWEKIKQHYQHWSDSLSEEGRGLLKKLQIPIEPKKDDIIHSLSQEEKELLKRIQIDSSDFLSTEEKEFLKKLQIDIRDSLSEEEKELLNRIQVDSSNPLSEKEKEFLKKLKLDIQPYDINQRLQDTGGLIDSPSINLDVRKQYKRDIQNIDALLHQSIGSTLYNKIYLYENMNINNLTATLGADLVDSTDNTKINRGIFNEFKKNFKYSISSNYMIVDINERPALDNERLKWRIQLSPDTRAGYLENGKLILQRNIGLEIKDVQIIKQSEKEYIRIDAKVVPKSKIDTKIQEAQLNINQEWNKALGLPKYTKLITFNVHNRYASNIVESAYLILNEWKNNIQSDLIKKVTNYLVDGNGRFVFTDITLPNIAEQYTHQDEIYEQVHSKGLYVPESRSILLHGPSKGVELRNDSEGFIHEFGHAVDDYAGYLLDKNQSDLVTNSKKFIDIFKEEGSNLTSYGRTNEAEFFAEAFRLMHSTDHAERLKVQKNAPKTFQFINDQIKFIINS
Conditions: at 1 mM.

The target of assay [9] is T5, Tyrosinase (Agaricus bisporus) (UniProt O42713).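 Also: inhibition measured at 10 min.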
T5 sequence (whole entry): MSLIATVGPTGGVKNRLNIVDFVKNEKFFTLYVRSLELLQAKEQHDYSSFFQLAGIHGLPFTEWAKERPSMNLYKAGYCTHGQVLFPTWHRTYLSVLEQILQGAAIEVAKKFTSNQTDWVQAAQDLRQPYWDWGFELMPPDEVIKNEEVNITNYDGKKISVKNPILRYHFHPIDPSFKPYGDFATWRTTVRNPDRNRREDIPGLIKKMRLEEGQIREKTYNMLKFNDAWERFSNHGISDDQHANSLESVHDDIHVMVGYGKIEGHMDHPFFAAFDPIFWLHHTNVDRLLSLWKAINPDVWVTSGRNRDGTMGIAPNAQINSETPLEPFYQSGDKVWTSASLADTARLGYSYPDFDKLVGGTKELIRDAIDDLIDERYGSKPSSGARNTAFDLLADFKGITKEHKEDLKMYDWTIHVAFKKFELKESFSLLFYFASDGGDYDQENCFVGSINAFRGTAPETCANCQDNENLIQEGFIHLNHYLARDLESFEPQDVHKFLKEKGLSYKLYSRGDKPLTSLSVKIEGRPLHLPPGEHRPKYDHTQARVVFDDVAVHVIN
Conditions: at 1 mM.

Matrix metalloproteinase-9 (Homo sapiens), sequence (P14780 whole entry): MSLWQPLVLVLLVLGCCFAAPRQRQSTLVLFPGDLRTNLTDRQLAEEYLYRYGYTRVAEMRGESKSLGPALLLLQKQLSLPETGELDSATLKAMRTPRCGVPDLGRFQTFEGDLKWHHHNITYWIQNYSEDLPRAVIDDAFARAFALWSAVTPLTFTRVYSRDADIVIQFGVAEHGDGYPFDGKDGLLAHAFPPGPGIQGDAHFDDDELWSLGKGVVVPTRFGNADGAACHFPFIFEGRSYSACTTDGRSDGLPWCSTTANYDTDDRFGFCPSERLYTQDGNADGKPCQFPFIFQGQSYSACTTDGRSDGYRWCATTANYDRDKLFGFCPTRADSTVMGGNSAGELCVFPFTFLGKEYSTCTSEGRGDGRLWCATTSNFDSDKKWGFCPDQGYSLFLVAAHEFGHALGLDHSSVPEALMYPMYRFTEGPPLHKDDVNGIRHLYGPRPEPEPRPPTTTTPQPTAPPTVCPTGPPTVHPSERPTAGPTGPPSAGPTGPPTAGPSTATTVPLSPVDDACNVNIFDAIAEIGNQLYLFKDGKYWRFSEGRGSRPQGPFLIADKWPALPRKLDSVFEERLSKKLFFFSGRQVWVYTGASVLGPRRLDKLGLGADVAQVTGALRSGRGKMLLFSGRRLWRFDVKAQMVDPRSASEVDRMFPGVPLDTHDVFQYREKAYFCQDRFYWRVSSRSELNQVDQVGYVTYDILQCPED
72 kDa type IV collagenase, sequence (P08253 110-660 limits assumed): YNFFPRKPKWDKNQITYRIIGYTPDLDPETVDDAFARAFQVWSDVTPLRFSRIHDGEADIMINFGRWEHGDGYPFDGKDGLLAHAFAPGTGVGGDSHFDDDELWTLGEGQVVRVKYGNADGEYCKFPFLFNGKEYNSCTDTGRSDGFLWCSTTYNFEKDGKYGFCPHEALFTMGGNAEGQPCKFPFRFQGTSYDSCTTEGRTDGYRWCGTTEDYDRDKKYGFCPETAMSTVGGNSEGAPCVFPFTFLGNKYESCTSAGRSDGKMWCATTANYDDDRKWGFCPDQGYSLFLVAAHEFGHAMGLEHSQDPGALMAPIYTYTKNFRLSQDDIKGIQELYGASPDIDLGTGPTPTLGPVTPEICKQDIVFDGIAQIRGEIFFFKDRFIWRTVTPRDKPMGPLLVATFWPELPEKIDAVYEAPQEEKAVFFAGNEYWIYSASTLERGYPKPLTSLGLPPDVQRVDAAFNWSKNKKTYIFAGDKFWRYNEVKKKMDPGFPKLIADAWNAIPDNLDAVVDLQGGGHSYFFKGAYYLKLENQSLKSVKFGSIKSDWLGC
Stromelysin-1 (Homo sapiens), sequence (P08254 100-477 limits assumed): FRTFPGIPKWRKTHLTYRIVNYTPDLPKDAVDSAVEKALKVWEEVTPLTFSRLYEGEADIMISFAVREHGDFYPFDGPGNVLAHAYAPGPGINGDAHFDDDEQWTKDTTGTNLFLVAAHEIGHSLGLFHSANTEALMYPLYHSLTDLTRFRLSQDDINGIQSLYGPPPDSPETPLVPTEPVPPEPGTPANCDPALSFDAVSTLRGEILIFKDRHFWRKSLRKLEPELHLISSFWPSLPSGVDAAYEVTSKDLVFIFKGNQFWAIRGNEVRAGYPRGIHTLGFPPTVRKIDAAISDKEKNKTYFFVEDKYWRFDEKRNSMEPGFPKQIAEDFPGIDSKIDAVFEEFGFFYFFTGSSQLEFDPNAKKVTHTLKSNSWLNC
Neutrophil collagenase (Homo sapiens), sequence (P22894 101-467 limits assumed): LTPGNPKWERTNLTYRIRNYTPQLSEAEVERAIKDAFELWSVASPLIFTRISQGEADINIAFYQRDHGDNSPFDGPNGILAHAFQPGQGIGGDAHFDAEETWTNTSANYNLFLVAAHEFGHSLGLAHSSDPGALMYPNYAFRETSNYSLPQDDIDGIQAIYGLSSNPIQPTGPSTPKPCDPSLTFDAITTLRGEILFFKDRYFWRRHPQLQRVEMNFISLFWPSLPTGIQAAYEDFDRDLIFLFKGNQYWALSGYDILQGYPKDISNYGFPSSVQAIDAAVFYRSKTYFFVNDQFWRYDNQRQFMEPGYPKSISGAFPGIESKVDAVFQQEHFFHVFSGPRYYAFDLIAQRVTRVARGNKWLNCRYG

Consider `c1cnc2c(c1)ccc1cccnc12`, for which the inhibition in assay [1] was determined as 71%; in [2], 86%; in assay [3] it was 91%; in assay [4], 30%; in [5], 100%; in assay [6] it was 100%. In addition, the inhibition was 4% in [7] and 67% in [8].
Consider `O=c1cc(CO)occ1O`, for which the inhibition was 59% in [1]; 49% in assay [2]; 62% in assay [3]; -4% in assay [4]; 51% in assay [5]; 52% in assay [6]. Moreover, the inhibition in assay [7] was 84%; in [8], 33%.
`Oc1ccccc1O`: the inhibition in assay [1] amounted to 25%; in assay [2], 10%; in assay [3] it was 1%; in assay [4], 28%; in assay [5] it was 31%; in [6] it was 10%. The inhibition in assay [7] was found to be 89%; in assay [8] it was 47%.
In the case of `Cc1ccc2cccc(O)c2n1`, the inhibition in [1] was found to be 47%; in [2], 34%; in [3] it was 71%; in assay [4] it was 7%; in assay [5], 63%; in assay [6] it was 65%. Also, the inhibition in assay [7] came out at 59%; in [8], 44%.
`OCc1ccnc(-c2cc(CO)ccn2)c1`: the inhibition in [1] amounted to 72%; in assay [2], 58%; in [3] it was 96%; in [4] it was 21%; in assay [5], 100%; in [6] it was 77%. The results for the inhibition in [7] and in assay [8] were 41% and 9%, respectively.
Regarding `COc1ccccc1O`, the inhibition in assay [1] was 8%; in assay [2] it was -6%; in assay [3] it was -4%; in [4], 13%; in assay [5] it was 4%; in assay [6], -5%. Also, the inhibition in assay [7] was 60%; in [8] it was 13%.
For `O=C(O)c1cccnc1C(=O)O`, the inhibition in assay [1] was 4%; in assay [2], -8%; in assay [4], 5%; in assay [9], 98%; in assay [5], 14%; in assay [7] it was 30%. For the same compound, the inhibition in [8] amounted to 49%.
As for `CCc1c(O)c(=O)ccn1CC`, the inhibition in assay [1] was determined as 25%; in [2], 15%; in [3], 9%; in assay [4], 8%; in assay [5] it was 31%; in [6], 17%. Besides, the inhibition in assay [7] came to 83%.
`Nc1ccc2cccc(O)c2n1`: the inhibition in assay [1] came out at 96%; in assay [2], 100%; in assay [3], 87%; in assay [4] it was 38%; in assay [5], 91%; in assay [6], 100%. The inhibition in assay [7] came to 66%; in assay [8], 59%.
Turning to `Oc1cccnc1O`, the inhibition in assay [1] was 8%; in assay [2], 21%; in assay [3], -7%; in [4], 0%; in [9], -9%; in [5], 7%. Moreover, the inhibition in assay [7] was determined as 90%.
For `CC(C)c1cccc(=O)c(O)c1`, the inhibition in assay [1] was determined as 95%; in [2] it was 99%; in assay [3] it was 98%; in assay [4] it was 18%; in [9] it was 54%; in assay [5] it was 100%. In addition, the values for the inhibition in assay [6] and in assay [8] were 90% and 66%, respectively.
In the case of `CCc1c(O)c(=O)ccn1C`, the inhibition is 34% in assay [1]; 13% in assay [2]; 20% in assay [3]; 1% in assay [4]; 34% in [5]; 32% in assay [6]. Also, the inhibition in [7] is 78%; in assay [8], 4%.

What is called inhibition is the drop in the measured response relative to a control, in per cent.
